# Several values for one entry are separate records, joined by “and”; a condition that tells them apart may be missing. Identical values can stand only once.
# What was measured:
# [1] = test system: Candida albicans (ATCC 10231); experiment: Antibacterial analysis per national standard WS/T 650-2019, viable count over 28 days; type: cell-based; details: 4.0% (aqueous solution of surfactant, or 4.0% sodium benzoate comparative)
# Protocol: (§1) Using the protocol set out in the national standard test WS/T 650-2019 “Evaluation Method of Antibacterial and Antibacterial Effects”, the amphiphilic biosurfactant produced as described above was analysed for antibacterial effects.
# [2] = test system: Staphylococcus aureus (ATCC 6538); experiment: as above; type: cell-based; details: 4.0% (aqueous solution of surfactant, or 4.0% sodium benzoate comparative)
# Protocol: as §1
compound,measurement,setting,value
O=C([O-])c1ccccc1.[Na+] [sodium benzoate],CFU/mL Candida albicans (ATCC 10231) Day 0,[1]; Day 0,4.0 × 10^5 CFU/mL
same,CFU/mL Candida albicans (ATCC 10231) Day 7,[1]; Day 7,3.4 × 10^2 CFU/mL
same,CFU/mL Candida albicans (ATCC 10231) Day 14,[1]; Day 14,3.0 × 10^1 CFU/mL
same,CFU/mL Candida albicans (ATCC 10231) Day 21,[1]; Day 21,<10 CFU/mL
same,CFU/mL Candida albicans (ATCC 10231) Day 28,[1]; Day 28,<10 CFU/mL
same,CFU/mL Staphylococcus aureus (ATCC 6538) Day 0,[2]; Day 0,5.0 × 10^6 CFU/mL and 5.2 × 10^6 CFU/mL
same,CFU/mL Staphylococcus aureus (ATCC 6538) Day 14,[2]; Day 14,8.7 × 10^1 CFU/mL
same,CFU/mL Staphylococcus aureus (ATCC 6538) Day 21,[2]; Day 21,<10 CFU/mL
